From paper PMC6345968, “Structural basis for species-selective targeting of Hsp90 in a pathogenic fungus” (Nature Communications, 2019)
Where two headings read alike, the source gives them in different places.

Legend:
Hsp90 in HEPG2 lysate = settings: for FP signal (raw): HepG2 lysate
[1] = molecular target: T1, Hsp90 in C. albicans (SC5314) lysate (Candida albicans, UniProt P46598); test: biochemical; type: binding
T1 construct: endogenous in cells; host or cells: C. albicans SC5314 whole-cell lysate
T1 sequence (P46598 whole entry): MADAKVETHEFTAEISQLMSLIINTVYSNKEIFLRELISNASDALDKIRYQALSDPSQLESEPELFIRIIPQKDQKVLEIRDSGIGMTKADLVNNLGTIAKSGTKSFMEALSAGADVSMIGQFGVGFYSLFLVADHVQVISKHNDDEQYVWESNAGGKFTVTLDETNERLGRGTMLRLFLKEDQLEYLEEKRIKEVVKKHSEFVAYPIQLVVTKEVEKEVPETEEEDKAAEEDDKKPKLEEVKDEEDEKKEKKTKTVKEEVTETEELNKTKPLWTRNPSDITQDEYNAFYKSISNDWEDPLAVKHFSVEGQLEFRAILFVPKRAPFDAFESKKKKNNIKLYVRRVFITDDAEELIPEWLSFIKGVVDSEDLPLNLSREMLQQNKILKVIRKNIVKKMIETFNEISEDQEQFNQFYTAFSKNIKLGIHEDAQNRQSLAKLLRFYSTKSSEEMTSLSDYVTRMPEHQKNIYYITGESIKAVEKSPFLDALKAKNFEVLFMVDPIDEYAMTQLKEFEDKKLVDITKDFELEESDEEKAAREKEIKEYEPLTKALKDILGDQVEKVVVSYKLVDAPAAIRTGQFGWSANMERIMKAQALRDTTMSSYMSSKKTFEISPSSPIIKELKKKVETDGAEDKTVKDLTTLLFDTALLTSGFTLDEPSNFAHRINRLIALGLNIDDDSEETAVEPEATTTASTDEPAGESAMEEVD

## CCNC(=O)c1noc(-c2cc(C(C)C)c(O)cc2O)c1-c1ccc(CN2CCOCC2)cc1 [AUY9222]
Hsp90 in HEPG2 lysate; Human lysate, refit block, unit inferred
  EC50: 0.00626 µM

## CC1(C)CC(=O)c2c(C(F)(F)F)nn(-c3ccc(C(N)=O)c(N[C@H]4CC[C@H](OC(=O)CN)CC4)c3)c2C1 [SNX-5422]
Hsp90 in HEPG2 lysate; EC50 relative to GdA, HEPG2 lysate
  Rel. to GdA: 2.507
Hsp90 in HEPG2 lysate; HEPG2 lysate
  EC50: 0.0656 µM
Hsp90 in HEPG2 lysate; HEPG2 lysate, log concentration 0.137354 (1.372 nM)
  FP signal, Fxn Control: 0.9858
Hsp90 in HEPG2 lysate; HEPG2 lysate, log concentration 0.61437 (4.115 nM)
  FP signal, Fxn Control: 0.9717
Hsp90 in HEPG2 lysate; HEPG2 lysate, log concentration 1.09153 (12.346 nM)
  FP signal, Fxn Control: 0.8821
Hsp90 in HEPG2 lysate; HEPG2 lysate, log concentration 1.56864 (37.037 nM)
  FP signal, Fxn Control: 0.7028
Hsp90 in HEPG2 lysate; HEPG2 lysate, log concentration 2.04576 (111.111 nM)
  FP signal, Fxn Control: 0.4953
Hsp90 in HEPG2 lysate; HEPG2 lysate, log concentration 2.52288 (333.333 nM)
  FP signal, Fxn Control: 0.3632
Hsp90 in HEPG2 lysate; HEPG2 lysate, log concentration 3 (1000 nM)
  FP signal, Fxn Control: 0.25
Hsp90 in HEPG2 lysate; HEPG2 lysate, log concentration 3.47712 (3000 nM)
  FP signal, Fxn Control: 0.217
Hsp90 in HEPG2 lysate; HEPG2 lysate, log concentration -0.340084 (0.457 nM)
  FP signal, Fxn Control: 0.9858
Hsp90 in HEPG2 lysate; 0.457 nM
  FP signal (raw): 209
Hsp90 in HEPG2 lysate; 1.372 nM
  FP signal (raw): 209
Hsp90 in HEPG2 lysate; 4.115 nM
  FP signal (raw): 206
Hsp90 in HEPG2 lysate; 12.346 nM
  FP signal (raw): 187
Hsp90 in HEPG2 lysate; 37.037 nM
  FP signal (raw): 149
Hsp90 in HEPG2 lysate; 111.111 nM
  FP signal (raw): 105
Hsp90 in HEPG2 lysate; 333.333 nM
  FP signal (raw): 77
Hsp90 in HEPG2 lysate; 1000 nM
  FP signal (raw): 53
Hsp90 in HEPG2 lysate; 3000 nM
  FP signal (raw): 46
[1]; EC50 HEPG2 / EC50 SC5314
  Hep/SC: 5.438
[1]; EC50 relative to GdA, SC5314 lysate
  Rel. to GdA: 0.6171
[1]; Hep/SC ratio relative to that of GdA
  Hep/Sc rel. Gda: 4.063
[1]; SC5314 lysate, 0.457 nM
  FP signal (raw): 205
[1]; SC5314 lysate, 1.372 nM
  FP signal (raw): 197
[1]; SC5314 lysate, 4.115 nM
  FP signal (raw): 177
[1]; SC5314 lysate, […] nM
  FP signal (raw): 118
[1]; SC5314 lysate, 37.037 nM
  FP signal (raw): 60
[1]; SC5314 lysate, 111.111 nM
  FP signal (raw): 41
[1]; SC5314 lysate, 333.333 nM
  FP signal (raw): 35
[1]; SC5314 lysate, 1000 nM
  FP signal (raw): 33
[1]; SC5314 lysate, 3000 nM
  FP signal (raw): 34
[1]; SC5314 lysate, read-out: EC50
  EC50: 0.0121 µM
